Experiment [1] deals with HeLa. Description: Antiproliferative activity against human HeLa cells assessed as reduction in cell growth at 8 uM incubated for 72 hrs by CCK-8 assay relative to control. The class given is functional. For orientation: Formazan colour is commonly taken as a measure of viable cells.
Experiment [2] deals with HCT-116. Briefly: Antiproliferative activity against human HCT116 cells assessed as reduction in cell growth at 2 uM incubated for 72 hrs by CCK-8 assay relative to control. The class given is functional. The conditions noted are these: HCT-116, 72 h.
In experiment [3] the test system is A549. Description: Antiproliferative activity against human A549 cells assessed as reduction in cell growth at 2 uM incubated for 72 hrs by CCK-8 assay relative to control. The class given is functional. The conditions noted are these: A549, 72 h.
Experiment [4] deals with SMMC-7721. Briefly: Antiproliferative activity against human SMMC7721 cells assessed as reduction in cell growth at 2 uM incubated for 72 hrs by CCK-8 assay relative to control. Conditions: SMMC-7721, 72 h. The class given is functional.
For experiment [5], the system named is HeLa. Description: Antiproliferative activity against human HeLa cells assessed as reduction in cell growth at 2 uM incubated for 72 hrs by CCK-8 assay relative to control. The class given is functional.
For experiment [6], the system named is HCT-116. Description: Antiproliferative activity against human HCT116 cells assessed as reduction in cell growth incubated for 72 hrs by CCK-8 assay. The class given is functional, cell-based. Conditions: HCT-116, 72 h.
The subject of experiment [7] is A-375. Description: Antiproliferative activity against human A375 cells assessed as reduction in cell growth at 8 uM incubated for 72 hrs by CCK-8 assay relative to control. The class given is functional. The conditions noted are these: A-375, 72 h.
In experiment [8] the test system is A-375. Briefly: Antiproliferative activity against human A375 cells assessed as reduction in cell growth at 2 uM incubated for 72 hrs by CCK-8 assay relative to control. The conditions noted are these: A-375, 72 h. The class given is functional.
For experiment [9], the system named is SMMC-7721. Description: Antiproliferative activity against human SMMC7721 cells assessed as reduction in cell growth at 8 uM incubated for 72 hrs by CCK-8 assay relative to control. Conditions: SMMC-7721, 72 h. The class given is functional.
In experiment [10] the test system is HCT-116. Briefly: Antiproliferative activity against human HCT116 cells assessed as reduction in cell growth at 8 uM incubated for 72 hrs by CCK-8 assay relative to control. The class given is functional. Conditions: HCT-116, 72 h.
In experiment [11] the test system is A549. Description: Antiproliferative activity against human A549 cells assessed as reduction in cell growth at 8 uM incubated for 72 hrs by CCK-8 assay relative to control. The conditions noted are these: A549, 72 h. The class given is functional.
The subject of experiment [12] is A-375. Description: Antiproliferative activity against human A375 cells assessed as reduction in cell growth incubated for 72 hrs by CCK-8 assay. The class given is functional, cell-based. Conditions: A-375, 72 h.
The test system of experiment [13] is SMMC-7721. Description: Antiproliferative activity against human SMMC7721 cells assessed as reduction in cell growth incubated for 72 hrs by CCK-8 assay. The conditions noted are these: SMMC-7721, 72 h. The class given is functional, cell-based.

In general, inhibition refers to the share of the control response that was lost under treatment. As usually defined, the IC50 is the concentration that gives 50% inhibition. Turning to `CCn1c(SCc2ccc(C(=O)Nc3ccccc3N)cc2)nc2cc(Br)ccc2c1=O`, the inhibition at 8 µM in [1] worked out at 41.3%; in [7], 40.7%; in experiment [9], 36.8%; in experiment [10], 68.5%; in experiment [11] it was 45.4%. Also, the inhibition at 2 µM is 24.8% in [2]; 20.4% in experiment [3]; 22.9% in experiment [4]; 30.4% in experiment [5]; 19.8% in experiment [8]. In addition, the IC50 in experiment [6] was 4.33 µM.
For the compound `CCCCn1c(SCc2ccc(C(=O)Nc3ccccc3N)cc2)nc2cc(F)ccc2c1=O`, the inhibition at 8 µM in experiment [1] worked out at 30.9%; in [7] it was 43.1%; in experiment [9], 41.6%; in experiment [10], 78.2%; in [11] it was 46.5%. Moreover, the inhibition at 2 µM turned out to be 22.8% in experiment [2]; 41.1% in experiment [3]; 9.1% in experiment [4]; 30.9% in experiment [5]; 18% in [8]. In addition, the IC50 in [6] came to 3.63 µM.
Regarding `COc1ccc2c(=O)n(-c3ccccc3C)c(SCc3ccc(C(=O)Nc4ccccc4N)cc3)nc2c1`, the inhibition at 8 µM in experiment [1] was 33.1%; in experiment [7], 83.6%; in [9], 78.1%; in experiment [10], 88.2%; in experiment [11], 54.5%. The inhibition at 2 µM in [2] is 73.5%; in experiment [3] it was 36.3%; in experiment [4], 58.2%; in experiment [5], 23.6%; in experiment [8], 39.1%. The IC50 in [12] was determined as 2.3 µM; in [6], 1.29 µM; in experiment [13], 5.37 µM.
For the compound `Cc1cccc2nc(SCc3ccc(/C=C/C(=O)Nc4ccccc4N)cc3)n(C)c(=O)c12`, the inhibition at 8 µM in [1] came out at 51.8%; in experiment [7], 32.4%; in [9], 52.3%; in experiment [10], 11.7%; in experiment [11], 46%. Besides, the inhibition at 2 µM in [2] was found to be 8.9%; in experiment [3], 39.4%; in [4] it was 50.5%; in experiment [5] it was 44.3%; in [8], 24.4%. Further, the IC50 in experiment [13] is 3.56 µM.
On to `COc1ccc2c(=O)n(-c3cccc(Cl)c3)c(SCc3ccc(C(=O)Nc4ccccc4N)cc3)nc2c1`, for which the inhibition at 8 µM is 51.2% in [1]; 36% in [7]; 27% in experiment [9]; 64% in experiment [10]; 30% in experiment [11]. Also, the inhibition at 2 µM in [2] came out at 22%; in experiment [3], 20.9%; in [4] it was 21.3%; in experiment [5], 12.3%; in [8] it was 21.7%. In [6], the IC50 came to 5.8 µM.
As to `CCn1c(SCc2ccc(C(=O)Nc3cc(F)ccc3N)cc2)nc2cc(OC)ccc2c1=O`, the inhibition at 8 µM in experiment [1] worked out at 41.6%; in [7], 38.8%; in [9], 61.4%; in [10], 67.8%; in experiment [11], 36.4%. Moreover, the inhibition at 2 µM in [2] came out at 50.3%; in [3], 12.3%; in experiment [4] it was 36%; in experiment [5], 6.9%; in experiment [8] it was 17.1%. Moreover, the half-inhibitory concentration (IC50) in experiment [13] came to 4.86 µM.

The values above are taken from ChEMBL document CHEMBL4393680, “Design, synthesis and biological evaluation of novel thioquinazolinone-based 2-aminobenzamide derivatives as potent histone deacetylase (HDAC) inhibitors” (Eur J Med Chem, 2019).
